Data from ChEMBL document CHEMBL3286373, “Toward the Development of Bivalent Ligand Probes of Cannabinoid CB1 and Orexin OX1 Receptor Heterodimers” (ACS Med Chem Lett, 2014).

Key:
[1] = molecular target: T1, Orexin/Hypocretin receptor type 1 (Homo sapiens) (UniProt O43613); assay: Antagonist activity at OX1 receptor (unknown origin) expressed in RD-HGA16 cells assessed as inhibition of orexin A-induced calcium mobilization by fluorometric imaging plate reader analysis; type: functional, cell-based
T1 sequence (whole entry): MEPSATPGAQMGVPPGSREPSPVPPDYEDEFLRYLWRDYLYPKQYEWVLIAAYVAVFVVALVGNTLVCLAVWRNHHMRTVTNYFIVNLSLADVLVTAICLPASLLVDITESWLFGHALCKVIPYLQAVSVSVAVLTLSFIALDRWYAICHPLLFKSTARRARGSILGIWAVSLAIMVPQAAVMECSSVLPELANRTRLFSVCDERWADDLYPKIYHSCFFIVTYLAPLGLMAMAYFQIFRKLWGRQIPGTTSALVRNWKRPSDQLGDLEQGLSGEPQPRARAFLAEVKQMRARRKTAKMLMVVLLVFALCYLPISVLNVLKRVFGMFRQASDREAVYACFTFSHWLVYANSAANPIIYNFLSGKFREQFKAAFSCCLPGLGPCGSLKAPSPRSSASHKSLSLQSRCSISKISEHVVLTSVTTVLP

[2] = molecular target: T2, Cannabinoid CB1 receptor/orexin receptor 1 complex (Homo sapiens) (UniProt P21554+O43613); conditions: RD-HGA16
Description: Antagonist activity at CB1-OX1 heterodimer (unknown origin) expressed in RD-HGA16 cells assessed as inhibition of CP55940-induced calcium mobilization by fluorometric imaging plate reader analysis

[3] = molecular target: T2, Cannabinoid CB1 receptor/orexin receptor 1 complex (Homo sapiens); conditions: RD-HGA16; remark: listed apart in the source
Description: Antagonist activity at CB1-OX1 heterodimer (unknown origin) expressed in RD-HGA16 cells assessed as inhibition of orexin A-induced calcium mobilization by fluorometric imaging plate reader analysis

[4] = molecular target: Cannabinoid receptor 1 (Homo sapiens) (UniProt P21554); conditions: RD-HGA16
Chain of Cannabinoid receptor 1 (Homo sapiens) (P21554 whole entry): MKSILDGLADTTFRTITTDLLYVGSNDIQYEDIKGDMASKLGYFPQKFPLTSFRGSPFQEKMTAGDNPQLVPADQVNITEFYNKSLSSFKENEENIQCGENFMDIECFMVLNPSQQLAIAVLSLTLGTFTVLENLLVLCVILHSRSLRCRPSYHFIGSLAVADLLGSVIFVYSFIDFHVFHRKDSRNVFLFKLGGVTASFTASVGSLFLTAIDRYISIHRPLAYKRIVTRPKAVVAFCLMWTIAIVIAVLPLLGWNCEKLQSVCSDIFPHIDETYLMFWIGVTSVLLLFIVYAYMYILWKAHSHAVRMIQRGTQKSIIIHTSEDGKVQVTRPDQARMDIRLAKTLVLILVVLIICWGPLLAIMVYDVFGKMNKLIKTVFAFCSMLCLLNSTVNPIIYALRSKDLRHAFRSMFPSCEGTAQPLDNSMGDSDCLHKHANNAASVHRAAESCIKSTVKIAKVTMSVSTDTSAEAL
Description: Antagonist activity at CB1 receptor (unknown origin) expressed in RD-HGA16 cells assessed as inhibition of CP55940-induced calcium mobilization by fluorometric imaging plate reader analysis

Compound | Ke [1] | Ke [2] | Ke [3] | Ke [4]
CCCC(=O)Oc1cc2c(cc1OC)CCN(CC(=O)NCc1ccccc1)C2Cc1ccc(OC)c(OC)c1 (centres undefined) | 78 nM | – | – | –
COc1cc2c(cc1OC)C(Cc1ccc(OC(=O)CCCCCCN(C)CCCCCCCCCCCCNC(=O)c3nn(-c4ccc(Cl)cc4Cl)c(-c4ccc(Cl)cc4)c3C)c(OC)c1)N(CC(=O)NCc1ccccc1)CC2 (centres undefined) | > 10000 nM | > 10 µM | 410 nM | 1100 nM
COc1ccc(CC2c3cc(OC)c(OC)cc3CCN2CC(=O)NCc2ccccc2)cc1OC (centres undefined) | 200 nM | – | – | –
COc1ccc(CC2c3cc(OC(=O)CCCCCCN(C)CCCCCCCNC(=O)c4nn(-c5ccc(Cl)cc5Cl)c(-c5ccc(Cl)cc5)c4C)c(OC)cc3CCN2CC(=O)NCc2ccccc2)cc1OC (centres undefined) | 8800 nM | > 10 µM | 1200 nM | 2100 nM
CCCC(=O)Oc1ccc(CC2c3cc(OC)c(OC)cc3CCN2CC(=O)NCc2ccccc2)cc1OC (centres undefined) | 43 nM | – | – | –
COc1cc2c(cc1OC)C(Cc1ccc(OC(=O)CCCCCCN(C)CCCCCCCNC(=O)c3nn(-c4ccc(Cl)cc4Cl)c(-c4ccc(Cl)cc4)c3C)c(OC)c1)N(CC(=O)NCc1ccccc1)CC2 (centres undefined) | 8460 nM | > 10 µM | 610 nM | 1800 nM
CCCCCCCNC(=O)CN1CCc2cc(OC)c(OC)cc2C1Cc1ccc(OC)c(OC)c1 (centres undefined) | 590 nM | – | – | –
CCCCCCOc1ccc(CC2c3cc(OC)c(OC)cc3CCN2CC(=O)NCc2ccccc2)cc1OC (centres undefined) | 120 nM | – | – | –
COc1cc2c(cc1OC)C(Cc1ccc(OC(=O)CCCCCCN(C)CCCCCCCCCCNC(=O)c3nn(-c4ccc(Cl)cc4Cl)c(-c4ccc(Cl)cc4)c3C)c(OC)c1)N(CC(=O)NCc1ccccc1)CC2 (centres undefined) | > 10000 nM | 5.9 µM | 110 nM | 1800 nM
COc1ccc(CC2c3cc(OCCCCCCC(=O)NCCOCCOCCOCCNC(=O)c4nn(-c5ccc(Cl)cc5Cl)c(-c5ccc(Cl)cc5)c4C)c(OC)cc3CCN2CC(=O)NCc2ccccc2)cc1OC (centres undefined) | 8600 nM | > 10 µM | 580 nM | 8000 nM
Cc1nc2ccc(NC(=O)Nc3ccnc4cccnc34)cc2o1 | 45 nM | 0.032 µM | > 10000 nM | > 10000 nM
CCCCCCOc1cc2c(cc1OC)CCN(CC(=O)NCc1ccccc1)C2Cc1ccc(OC)c(OC)c1 (centres undefined) | 310 nM | – | – | –
CCCCCCCNC(=O)[C@@H](c1ccccc1)N1CCc2cc(OC)c(OC)cc2C1Cc1ccc(OC)c(OC)c1 (some centres undefined) | 22 nM | – | – | –
COc1ccc(CC2c3cc(OC)c(OC)cc3CCN2C(C(=O)NCCCCCCCN(C)CCCCCCCNC(=O)c2nn(-c3ccc(Cl)cc3Cl)c(-c3ccc(Cl)cc3)c2C)c2ccccc2)cc1OC (centres undefined) | 5500 nM | > 10 µM | 230 nM | 3000 nM
COc1ccc(CC2c3cc(OC(=O)CCCCCCN(C)CCCCOCCCCOCCCCOCCNC(=O)c4nn(-c5ccc(Cl)cc5Cl)c(-c5ccc(Cl)cc5)c4C)c(OC)cc3CCN2CC(=O)NCc2ccccc2)cc1OC (centres undefined) | 3500 nM | 4.5 µM | 420 nM | 1800 nM
